One may read the inhibition as the change of the read-out against control, counted positive when it falls. As a reminder, the pIC50 is −log10 of the IC50, conventionally taken in molar units. By pKi is commonly meant −log10 of the Ki, conventionally taken in molar units. As a reminder, the pEC50 is the negative decadic logarithm of the EC50, by convention in mol/L.

Experimental findings from ChEMBL document CHEMBL2417420, “Autotaxin inhibition: development and application of computational tools to identify site-selective lead compounds” (Bioorg Med Chem, 2013) are described below.

The target of assay [1] is T1, Autotaxin (Homo sapiens, UniProt Q13822). The assay is described as follows: Inhibition of C-terminal FLAG-tagged human recombinant autotaxin using synthetic substrate FS-3 at 10 uM measured every 2 mins by FRET assay relative to control.
Assay [2] addresses T1, Autotaxin. The assay is described as follows: Inhibition of C-terminal FLAG-tagged human recombinant autotaxin using synthetic substrate FS-3 measured every 2 mins by FRET assay.
Assay [3] concerns the target T1, Autotaxin. The assay is described as follows: Competitive inhibition of C-terminal FLAG-tagged human recombinant autotaxin using synthetic substrate FS-3 by Michaelis-Menten equation analysis.
The subject of assay [4] is A2058. The assay is described as follows: Cytotoxicity against human A2058 cells assessed as reduction of cell number at 30 uM after 24 hrs by MTS assay. The format is functional. (In general: Tetrazolium assays rely on reduction of a dye to a coloured formazan, in cell work by metabolically active cells.)
The target of assay [5] is T1, Autotaxin. The assay can be described thus: Activation of C-terminal FLAG-tagged human recombinant autotaxin using paranitrophenyl thymidine monophosphate as substrate measured every 2 mins by […] assay.
The target in assay [6] is T1, Autotaxin. The assay can be described thus: Activation of C-terminal FLAG-tagged human recombinant autotaxin using paranitrophenyl thymidine monophosphate as substrate at 10 uM measured every 2 mins by […] assay.
Assay [7] has as its system A2058. The assay can be described thus: Reduction of cell migration in human A2058 cells at 30 uM after 4 to 48 hrs by monolayer scratch assay. The format is functional.

pEC50, pIC50, pKi: −log10 of the molar value. Active and inactive are the calls of the source. The calls are words filed in the database; no cut-off is given here. Peptide text beside a SMILES is read from it. * marks the point of attachment. Cbz = O=C(OCc1ccccc1)*

For the compound `CC1CCC(C(C)C)C(OCC(=O)N2CCC(CCCC3CCN(c4ccc(C(=O)N5CCCC5C(N)=O)cc4)CC3)CC2)C1` (configuration not stated), the inhibition on Autotaxin [1] was 90.5%. Moreover, the pIC50 at Autotaxin [2] is 6.10. Also, the pKi at Autotaxin [3] is 7.00. Also, in the assay with A2058 [4], the outcome was Active. Also, the pEC50 on Autotaxin [5] is 5.55.
With `COc1ccc(OCCNC(=S)Nc2ccc(-c3ccccc3)cc2)cc1`, the outcome at Autotaxin [6] was Active.
With `CCCSC1=C(C#N)C(c2cc(Br)c(O)c(OC)c2)CC(=O)N1` (configuration not stated), on Autotaxin [6], the outcome was Active.
Same read-out and setting: the entry for `COc1cc(/C=c2/sc3nc4ccccc4n3c2=O)cc(Br)c1OCc1ccccc1Cl` is “Active”; for `CCOC(=O)C1=C(C)N=c2s/c(=C/c3cccc(OC)c3O)c(=O)n2[C@@H]1c1ccccc1` it is “Active”.
Consider `CCCc1ccc(S(=O)(=O)Oc2ccccc2-c2cc(CC)n(CCN3CCCCC3)n2)cc1`, for which, on Autotaxin [1], the inhibition amounted to 61.5%. Moreover, the pIC50 on Autotaxin [2] is 5.31.
Consider `COc1cc(/C=C2/SC(=S)N(Cc3ccccc3)C2=O)ccc1OC(=O)c1ccc(F)cc1`, for which the result at Autotaxin [6] was Active.
Take `O=C(O)c1ccc(-c2ccc(/C=C3/SC(=O)N(Cc4ccc(F)cc4)C3=O)o2)cc1`: the inhibition on Autotaxin [1] was 68.8%. Moreover, at Autotaxin [2], the pIC50 is 5.36.
As to `COc1ccc(Cl)cc1NC(=O)CSC1=C(C#N)C(c2ccc(OC)c(OC)c2)CC(=O)N1` (configuration not stated), at Autotaxin [6], the outcome was Active.
In the case of `CC(C)Cc1ccc(C(C)C(=O)N2CCC(CCCC3CCN(c4ccc(C(=O)NC(C(N)=O)C(C)O)cn4)CC3)CC2)cc1` (configuration not stated), the inhibition on Autotaxin [1] is 87.3%. For the same compound, the pIC50 on Autotaxin [2] is 6.10. The pKi on Autotaxin [3] is 6.10. The outcome in the assay with A2058 [4] was Active. Also, the pEC50 on Autotaxin [5] is 5.37.
As for `CC(C)C1C(=O)Nc2cc(S(=O)(=O)NCc3ccccc3)ccc2N1C(=O)CN1CCCCC1` (configuration not stated), on Autotaxin [1], the inhibition is 62.3%. The pIC50 at Autotaxin [2] was 5.21.
As to `CCOc1cc(/C=C2/SC(=S)N(Cc3ccccc3)C2=O)ccc1OC(=O)c1ccc(F)cc1`, on Autotaxin [6], the result was Active.
The same measure, in the same setting: the entry for `CC(=O)Nc1ccc(S(=O)(=O)N/N=C/c2ccc(OCc3ccccc3)cc2)cc1` is “Active”; for `COc1cc(/C=C2/SC(=S)N(Cc3ccccc3)C2=O)ccc1OC(=O)c1ccco1` it is “Active”.
Regarding `O=C(O)c1cc(-c2ccc(/C=C3\S/C(=N\c4ccccc4)N(Cc4ccccc4)C3=O)o2)ccc1Cl`, the result on Autotaxin [6] was Active.
The same measure, in the same setting: the value for `CCOC(=O)C1=C(C)N=c2s/c(=C/c3ccc(O)c(OC)c3)c(=O)n2[C@H]1c1cccc2ccccc12` was “Active”.
As for `CC(O)C(NC(=O)c1ccc(N2CCN(C(=O)Cc3cccc4ccccc34)CC2)nc1)C(N)=O` (configuration not stated), on Autotaxin [6], the result was Active.
In the case of `COc1cc(CCNC(=O)c2ccc3c(c2)nc(-c2cccc4ccccc24)n3CCc2ccc(OC)c(OC)c2)cc(OC)c1`, the inhibition at Autotaxin [1] came out at 63.8%. For the same compound, the pIC50 at Autotaxin [2] is 5.96.
As for `COc1ccc(/C=c2/sc3n(c2=O)NC2(c4ccccc4)N(C)C(=O)N(C)C2(c2ccccc2)N=3)cc1O` (configuration not stated), the inhibition on Autotaxin [1] is 10%.
Still for that read-out and setting: the figure for `O=C(Cn1c(=O)sc2ccccc21)OCc1cccc(Oc2ccccc2)c1` is 0%; for `CCOc1cc(/C=C2/S/C(=N/c3ccccc3)N(c3ccccc3)C2=O)ccc1OCc1ccccc1` it is 10%; for `COc1ccc(-c2nc3cc(C(=O)NCCOCCO)ccc3n2CCc2ccc(OC)c(OC)c2)c(OC)c1` it is 10%.
The same measure, in the same setting: the value for `COc1cccc(CCNC(=O)c2ccc3c(c2)nc(-c2cc(OC)c(OC)c(OC)c2)n3CCc2ccc(OC)c(OC)c2)c1` was 30%; that for `CCc1cc2c(cc3c(=O)n(CCCC(=O)NCc4ccc(Cl)cc4)ncn32)s1` was 30%.
Still for that read-out and setting: the figure for `COc1cccc(CC(=O)NCCNc2nc3cc4c(cc3cc2C#N)OCO4)c1` is 20%.
Take `COC(=O)C1C(=O)NC(SCC(=O)Nc2ccc(C)cc2Br)=C(C#N)C1c1ccc(OC)cc1` (configuration not stated): the result at Autotaxin [6] was Active.
Regarding `CCCCCOc1ccc(/N=C2\C=C(O)C(=O)c3ccccc32)cc1`, at Autotaxin [1], the inhibition is 20%.
With `CCc1ccc2c(c1)c1nnc(SCC(=O)NCc3ccc4c(c3)OCO4)nc1n2C`, the inhibition at Autotaxin [1] turned out to be 10%.
Turning to `O=C(NCC(O)CO)c1ccc2c(c1)nc(CN1CCC(CCO)CC1)n2CCc1ccccc1` (configuration not stated), the inhibition on Autotaxin [1] was 10%.
The same measure, in the same setting: the value for `CCCCCC(C)(C)c1ccc(Oc2ccc(NC(=O)c3cc(/N=N/c4cccc(OC)c4)c4ccccc4c3O)cc2)cc1` was 10%.
In the case of `COc1cccc(Cc2nc3cc(C(=O)NCC(O)CO)ccc3n2CCc2ccccc2F)c1` (configuration not stated), the inhibition on Autotaxin [1] was determined as 10%.
Turning to `O=C(Cn1c(=O)sc2cccc(Cl)c21)OCc1cccc(Oc2ccccc2)c1`, on Autotaxin [6], the result was Active.
In the case of `CC(C)C(=O)NC(Cc1ccc(OCc2ccccc2)cc1)C(=O)NCCCN(C)c1ccccc1` (configuration not stated), the inhibition at Autotaxin [1] came out at 30%.
On the same count and under the same terms, the value for `C=CCOC(=O)C1=C(C)NC(SCC(=O)Nc2cccc(Cl)c2)=C(C#N)C1c1ccc(O)c(OC)c1` (configuration not stated) was 30%; that for `CCC(C)C(NC(=O)OCc1ccccc1)C(=O)NC(Cc1ccc(O)cc1)C(N)=O` (stereo not drawn) (Cbz-Ile-Tyr-NH2; configuration not given here) was 0%.
Still for that read-out and setting: the figure for `CC(=O)C1=C(C)NC(SCC(=O)Nc2ccc(Br)cc2)=C(C#N)C1c1ccc(O)cc1` (configuration not stated) is 30%; for `O=C1Nc2ccc([N+](=O)[O-])cc2/C1=N/NC(=O)c1ccc(C(=O)N/N=C2\C(=O)Nc3ccc([N+](=O)[O-])cc32)cc1` it is 10%.
Turning to `CCCCCCOC(=O)Oc1ccc(/C=N/c2ccc(OCC)cc2)cc1`, the inhibition on Autotaxin [1] came out at 0%.
On the same count and under the same terms, the figure for `COc1ccc(-c2cc(C(=O)N/N=C/c3cc(OC)c(O)c(OC)c3)[nH]n2)cc1OC` is 10%.
Turning to `Cc1cc(C)cc(CC(=O)N2CCC(CCCC3CCN(c4ccc(C(=O)NC(C(N)=O)C(C)O)cn4)CC3)CC2)c1` (configuration not stated), the inhibition at Autotaxin [1] came to 83.2%. For the same compound, the pIC50 on Autotaxin [2] was 6.05. Besides, the result in the assay on A2058 [7] and with A2058 [4] was inactive. In addition, on Autotaxin [3], the pKi was 4.75.
For `COc1cccc(-c2ccc(C(=O)N(CCN)Cc3ccc(NC(C)=O)cc3)cn2)c1`, the inhibition at Autotaxin [1] was 20%.
`COc1cc(C(=O)NCCNc2nc3cc4c(cc3cc2C#N)OCO4)cc(OC)c1OC`: at Autotaxin [1], the inhibition is 10%.
Same read-out and setting: the value for `Cn1cc(S(=O)(=O)N2CCc3ccccc32)cc1C(=O)N1CCC(Cc2ccccc2)CC1` was 30%; that for `CC(CNC(=O)c1cc(-c2ccccc2)nc2ccccc12)C(=O)NCCNc1ccccc1` (configuration not stated) was 10%.
On to `O=C1/C(=C\c2ccc(OCc3cccc4ccccc34)cc2)SC(=S)N1c1cccc(F)c1`, for which, on Autotaxin [1], the inhibition was found to be 10%.
Regarding `COc1cc(CCNC(=O)c2ccc3c(c2)nc(-c2cc(OC)cc(OC)c2)n3CCc2ccc(OC)c(OC)c2)cc(OC)c1`, the inhibition at Autotaxin [1] was found to be 30%.
For the compound `NC(=O)C(Cc1ccc(O)cc1)NC(=O)c1ccc(N2CCN(C(=O)C(N)Cc3ccccc3)CC2)nc1` (configuration not stated), the inhibition at Autotaxin [1] was 10%.
Same read-out and setting: the value for `COc1cc(CCNC(=O)c2ccc3c(c2)nc(-c2ccccc2)n3CCc2ccc(OC)c(OC)c2)cc(OC)c1` was 20%; that for `COc1ccc(CNC(=O)N2CC(O)C(N3CCN(c4ccccc4F)CC3)C2)cc1` (configuration not stated) was 10%.
As for `O=C(COc1cc(Cl)c(Cl)cc1Cl)Nc1ccc(CNC(=O)c2cnc3cc(C(F)(F)F)ccc3c2O)cc1`, the inhibition on Autotaxin [1] was 10%.
`CC(CC(=O)NCCc1ccncc1)NC(=O)c1cc(-c2ccccc2)nc2ccccc12` (configuration not stated): the inhibition on Autotaxin [1] amounted to 20%.
Regarding `COc1ccc(CCNC(=O)c2ccc3c(c2)nc(-c2cc(OC)c(OC)c(OC)c2)n3CCc2ccc(OC)c(OC)c2)cc1OC`, the inhibition on Autotaxin [1] came out at 30%.
With `COc1ccc(CNC(=O)C(C)(C)NC(=O)c2cc(-c3ccoc3)nc3ccccc23)c(OC)c1`, the inhibition on Autotaxin [1] came out at 10%.
In the case of `CC(=O)N1CCc2cc(NC(=O)c3ccc4nc(C)c(N(C)C(=O)CCc5ccccc5)n4c3)ccc21`, on Autotaxin [1], the inhibition turned out to be 20%.
Consider `CC1CCC(OCC(=O)N2CCN(c3ncccc3C(=O)N3CCCC3C(N)=O)CC2)C(C(C)C)C1` (configuration not stated), for which the inhibition at Autotaxin [1] stood at 20%.
The same measure, in the same setting: the value for `CC(=O)CCC(=O)N1CCN(c2ccc(C(=O)NC(C(N)=O)C(C)O)cn2)CC1C` (configuration not stated) was 10%; that for `CC(=O)N1c2ccc(NC(=O)c3ccc(Cl)cc3Cl)cc2C2(c3ccccc3)N(C(C)=O)c3ccc(NC(=O)c4ccc(Cl)cc4Cl)cc3C12c1ccccc1` (configuration not stated) was 10%.
The same measure, in the same setting: the value for `COc1cc(C2CC(=O)NC(SCC(=O)Nc3ccccc3C)=C2C#N)cc(Br)c1O` (configuration not stated) was 30%.
The same measure, in the same setting: the value for `CCCCn1c(CN2CC(C)CC(C)C2)nc2cc(C(=O)NCC(O)CO)ccc21` (configuration not stated) was 0%.
As for `O=C(O)c1ccccc1-c1ccc(/C=C2/SC(=S)N(Cc3ccccc3)C2=O)o1`, on Autotaxin [1], the inhibition turned out to be 93.7%. For the same compound, the pIC50 on Autotaxin [2] is 5.62.
Regarding `CCn1c2ccccc2c2cc(/C=C3\SC(=S)N([C@H](Cc4ccccc4)C(=O)O)C3=O)ccc21`, the inhibition at Autotaxin [1] is 0%.
Same read-out and setting: the value for `CCOc1ccc(/N=C\c2ccc(OCC)c(OCC)c2)cc1` was 0%; that for `COc1cccc(CNS(=O)(=O)c2ccc3c(c2)NC(=O)C(C)N3C(=O)CN2CCN(c3ccccn3)CC2)c1OC` (configuration not stated) was 10%; that for `CC(C)c1ccc(OCC(=O)N2CCN(c3ncccc3C(=O)N3CCCC3C(N)=O)CC2C)cc1` (configuration not stated) was 30%.
As to `O=C(O)CN1C(=O)/C(=C/c2ccc(-c3ccc(Cl)cc3)o2)S/C1=N\c1ccccc1`, the inhibition at Autotaxin [1] is 20%.
As to `CC(O)C(NC(=O)c1ccc(N2CCC(CCCC3CCN(C(=O)Cc4ccc(-c5ccccc5)cc4)CC3)CC2)nc1)C(N)=O` (configuration not stated), on Autotaxin [1], the inhibition was 85.3%. On Autotaxin [2], the pIC50 was 6.05. Also, the pKi on Autotaxin [3] is 6.70. In addition, the outcome in the assay on A2058 [4] was Active. In addition, the pEC50 on Autotaxin [5] is 5.35.
